{
  "source": "patent US4061649A",
  "about": "“Clavulanic acid sulphates” (Beecham Group Limited, priority 1975, dated 1977)",
  "key": {"Klebsiella aerogenes": {"tested_on": "Klebsiella aerogenes", "assay": "MIC, microtitre method (Example 30)", "conditions": "approximate MIC; inoculum final dilution 0.5 × 10^-4"}, "Shigella sonnei": {"tested_on": "Shigella sonnei", "assay": "MIC, microtitre method (Example 30)", "conditions": "approximate MIC; inoculum final dilution 0.5 × 10^-4"}, "Providentia stuartii": {"tested_on": "Providentia stuartii", "assay": "MIC, microtitre method (Example 30)", "conditions": "approximate MIC; inoculum final dilution 0.5 × 10^-4"}, "Enterobacter cloacae [1]": {"tested_on": "Enterobacter cloacae", "assay": "MIC, microtitre method (Example 30)", "conditions": "approximate MIC; inoculum final dilution 0.5 × 10^-4"}, "Proteus vulgaris W090": {"tested_on": "Proteus vulgaris W090", "assay": "MIC, microtitre method (Example 30)", "conditions": "approximate MIC; inoculum final dilution 0.5 × 10^-4"}, "Enterobacter cloacae [2]": {"tested_on": "Enterobacter cloacae", "assay": "MIC / synergism, microtitre method (Example 42)", "format": "cell-based", "conditions": "compound alone; inoculum 0.5 × 10^-2"}, "Staphylococcus aureus": {"tested_on": "Staphylococcus aureus", "assay": "MIC / synergism, microtitre method (Example 42)", "format": "cell-based"}, "[3]": {"tested_on": "Streptococcus pyogenes CN 10", "assay": "MIC, microtitre method (Example 30)", "conditions": "approximate MIC; inoculum final dilution 0.5 × 10^-4"}, "Serratia marcescens [4]": {"tested_on": "Serratia marcescens", "assay": "MIC / synergism, microtitre method (Example 42)", "format": "cell-based", "conditions": "compound alone; inoculum 0.5 × 10^-2"}, "Proteus mirabilis 0977": {"tested_on": "Proteus mirabilis 0977", "assay": "MIC, microtitre method (Example 30)", "conditions": "approximate MIC; inoculum final dilution 0.5 × 10^-4"}, "[5]": {"tested_on": "Escherichia coli NCTC 10418", "assay": "MIC, microtitre method (Example 30)", "conditions": "approximate MIC; inoculum final dilution 0.5 × 10^-4"}, "Staph.aureus Russell": {"tested_on": "Staph.aureus Russell", "assay": "MIC, method of Example 30 with 1/100 dilution of overnight broth (Example 46)", "conditions": "heavy inocula (1/100 of overnight broth); no unit in table (Example 30: μg/ml)"}, "Pseudomonas aeruginosa A": {"tested_on": "Pseudomonas aeruginosa A", "assay": "MIC, microtitre method (Example 30)", "conditions": "approximate MIC; inoculum final dilution 0.5 × 10^-4"}, "Acinetobacter anitratus": {"tested_on": "Acinetobacter anitratus", "assay": "MIC, microtitre method (Example 30)", "conditions": "approximate MIC; inoculum final dilution 0.5 × 10^-4"}, "Klebsiella oxytocum": {"tested_on": "Klebsiella oxytocum", "assay": "MIC, microtitre method (Example 30)", "conditions": "approximate MIC; inoculum final dilution 0.5 × 10^-4"}, "Streptococcus faecalis": {"tested_on": "Streptococcus faecalis", "assay": "MIC, microtitre method (Example 30)", "conditions": "approximate MIC; inoculum final dilution 0.5 × 10^-4"}, "Serratia marcescens [6]": {"tested_on": "Serratia marcescens", "assay": "MIC, microtitre method (Example 30)", "conditions": "approximate MIC; inoculum final dilution 0.5 × 10^-4"}, "Staph.aureus Oxford": {"tested_on": "Staph.aureus Oxford", "assay": "MIC, method of Example 30 with 1/100 dilution of overnight broth (Example 46)", "conditions": "heavy inocula (1/100 of overnight broth); no unit in table (Example 30: μg/ml)"}, "Bacillus subtilis A": {"tested_on": "Bacillus subtilis A", "assay": "MIC, method of Example 30 with 1/100 dilution of overnight broth (Example 46)", "conditions": "heavy inocula (1/100 of overnight broth); no unit in table (Example 30: μg/ml)"}, "Salmonella typhimurium": {"tested_on": "Salmonella typhimurium", "assay": "MIC, microtitre method (Example 30)", "conditions": "approximate MIC; inoculum final dilution 0.5 × 10^-4"}, "[7]": {"assay": "blood and tissue levels in female mice", "format": "in vivo", "conditions": "oral administration of 100 mg/kg"}, "Proteus mirabilis 899": {"tested_on": "Proteus mirabilis 899", "format": "cell-based"}, "[8]": {"tested_on": "Enterobacter aerogenes T 624", "assay": "MIC, microtitre method (Example 30)", "conditions": "approximate MIC; inoculum final dilution 0.5 × 10^-4"}, "Bacillus subtilis": {"tested_on": "Bacillus subtilis", "assay": "MIC, microtitre method (Example 30)", "conditions": "approximate MIC; inoculum final dilution 0.5 × 10^-4"}, "[9]": {"molecular_target": "T1, Escherischia coli JT4 β-lactamase (Escherichia coli, UniProt P62593)", "T1 construct": "host or cells: Escherichia coli JT4", "T1 sequence (P62593 24-286 limits assumed)": "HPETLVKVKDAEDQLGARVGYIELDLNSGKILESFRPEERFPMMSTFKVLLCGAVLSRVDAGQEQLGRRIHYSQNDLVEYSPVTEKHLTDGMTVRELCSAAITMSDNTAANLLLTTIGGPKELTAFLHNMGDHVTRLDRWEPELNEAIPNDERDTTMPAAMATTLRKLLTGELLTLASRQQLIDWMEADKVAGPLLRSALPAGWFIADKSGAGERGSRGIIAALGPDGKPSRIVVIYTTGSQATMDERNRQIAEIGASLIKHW", "assay": "β-lactamase I50, method of Belgian Pat. No. 827926", "format": "biochemical", "description": "(§1) The I50 in μg/ml of this compound against several β-lactamaseswas determined using the method described in Belgian Pat. No. 827926 and the results are as follows: […]"}, "[10]": {"molecular_target": "T2, Pseudomonas Dalgleish β-lactamase (Pseudomonas aeruginosa, UniProt P16897)", "T2 construct": "host or cells: Pseudomonas (aeruginosa) Dalgleish", "T2 sequence (P16897 18-288)": "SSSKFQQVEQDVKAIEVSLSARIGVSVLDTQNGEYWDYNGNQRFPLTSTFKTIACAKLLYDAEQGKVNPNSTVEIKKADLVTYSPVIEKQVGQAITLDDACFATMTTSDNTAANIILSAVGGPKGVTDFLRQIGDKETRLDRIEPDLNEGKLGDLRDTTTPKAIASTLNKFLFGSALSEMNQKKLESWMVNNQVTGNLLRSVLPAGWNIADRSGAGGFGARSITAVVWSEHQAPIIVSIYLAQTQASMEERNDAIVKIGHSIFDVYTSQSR", "assay": "β-lactamase I50, method of Belgian Pat. No. 827926", "format": "biochemical", "description": "as §1"}, "[11]": {"tested_on": "Staphylococcus aureus(Russell)", "assay": "MIC / synergism, microtitre method (Example 42)", "format": "cell-based"}, "[12]": {"tested_on": "strains of Klebsiella aerogenes A", "assay": "growth inhibition, penicillins with and without clavulanic acid or ester", "format": "cell-based"}, "[13]": {"tested_on": "β-lactamase producing strains of Proteus mirabilis and Staphylococcus aureus", "assay": "synergism with cephaloridine", "format": "cell-based"}, "[14]": {"tested_on": "β-lactamase producing strains of Escherichia coli, Klebsiella aerognes and Staphylococcus aureus", "assay": "synergism with ampicillin", "format": "cell-based"}, "[15]": {"tested_on": "strains of Staphylococcus aureus", "assay": "growth inhibition", "format": "cell-based"}, "bacteria": {"tested_on": "bacteria", "assay": "tests for antibacterial activity in broth (Example 32)", "format": "cell-based", "conditions": "possibly due to clavulanic acid liberated by slow hydrolysis"}, "Escherichia coli B 11": {"tested_on": "Escherichia coli B 11", "assay": "MIC / synergism, microtitre method (Example 42)", "format": "cell-based", "conditions": "compound alone; inoculum 0.5 × 10^-2"}, "[16]": {"conditions": "in presence of 5μg/ml clavulanic acid sodium salt"}},
  "note": "Structures can show the parent of a compound that is named as a salt.",
  "data": [
    {"smiles": "O=C(O)[C@H]1/C(=C/CO)O[C@@H]2CC(=O)N21", "note": "[clavulanic acid sodium salt, 3-(β-hydroxyethylidine)-7-oxo-4-oxa-1-azabicyclo [3,2,0]heptane-2-carboxylic acid sodium salt]", "values": [
      {"measurement": "Minimum Inhibitory Concentration", "setting": "Klebsiella aerogenes", "result": "31 to 62", "unit": "µg/mL"},
      {"measurement": "Minimum Inhibitory Concentration", "setting": "Shigella sonnei", "result": 62, "unit": "µg/mL"},
      {"measurement": "Minimum Inhibitory Concentration", "setting": "Providentia stuartii", "result": 125, "unit": "µg/mL"},
      {"measurement": "Minimum Inhibitory Concentration", "setting": "Enterobacter cloacae [1]", "result": 62, "unit": "µg/mL"},
      {"measurement": "Minimum Inhibitory Concentration", "setting": "Proteus vulgaris W090", "result": 31, "unit": "µg/mL"},
      {"measurement": "Minimum Inhibitory Concentrations", "setting": "Enterobacter cloacae [2]", "result": 62, "unit": "µg/mL"},
      {"measurement": "Minimum Inhibitory Concentrations", "setting": "Staphylococcus aureus; compound alone, inoculum 0.5 × 10^-2", "result": 62, "unit": "µg/mL"},
      {"measurement": "Minimum Inhibitory Concentration", "setting": "[3]", "result": 125, "unit": "µg/mL"},
      {"measurement": "Minimum Inhibitory Concentrations", "setting": "Serratia marcescens [4]", "result": 125, "unit": "µg/mL"},
      {"measurement": "Minimum Inhibitory Concentration", "setting": "Proteus mirabilis 0977", "result": 62, "unit": "µg/mL"},
      {"measurement": "Minimum Inhibitory Concentration", "setting": "[5]", "result": 31, "unit": "µg/mL"},
      {"measurement": "MIC", "setting": "Staph.aureus Russell", "result": 15},
      {"measurement": "Minimum Inhibitory Concentration", "setting": "Pseudomonas aeruginosa A", "result": 500, "unit": "µg/mL"},
      {"measurement": "Minimum Inhibitory Concentration", "setting": "Acinetobacter anitratus", "result": 125, "unit": "µg/mL"},
      {"measurement": "Minimum Inhibitory Concentration", "setting": "Klebsiella oxytocum", "result": 62, "unit": "µg/mL"},
      {"measurement": "Minimum Inhibitory Concentration", "setting": "Streptococcus faecalis", "result": "> 500", "unit": "µg/mL"},
      {"measurement": "Minimum Inhibitory Concentration", "setting": "Serratia marcescens [6]", "result": 125, "unit": "µg/mL"},
      {"measurement": "MIC", "setting": "Staph.aureus Oxford", "result": 15},
      {"measurement": "MIC", "setting": "Bacillus subtilis A", "result": 62},
      {"measurement": "Minimum Inhibitory Concentration", "setting": "Salmonella typhimurium", "result": 31, "unit": "µg/mL"},
      {"measurement": "levels of clavulanic acid", "setting": "[7]", "result": "useful levels"},
      {"measurement": "Minimum Inhibitory Concentrations", "setting": "Proteus mirabilis 899", "result": "< 500", "unit": "µg/mL"},
      {"measurement": "Minimum Inhibitory Concentration", "setting": "[8]", "result": 31, "unit": "µg/mL"},
      {"measurement": "Minimum Inhibitory Concentration", "setting": "Bacillus subtilis", "result": 62, "unit": "µg/mL"}
    ]},
    {"smiles": "O=C(OCc1ccccc1)[C@H]1/C(=C/COS(=O)(=O)O)O[C@@H]2CC(=O)N21", "note": "[Example 50, Benzyl Clavulanate -- O -- sulphonate trimethylamine salt]", "values": [
      {"measurement": "IC50", "setting": "[9]", "result": 9.21, "unit": "µM"},
      {"measurement": "IC50", "setting": "[10]", "result": 11.4, "unit": "µM"}
    ]},
    {"smiles": "O=C(Cc1cccs1)N[C@@H]1C(=O)N2C(C(=O)[O-])=C(C[n+]3ccccc3)CS[C@H]12", "note": "[Cephaloridine, cephaloridine]", "values": [
      {"measurement": "Minimum Inhibitory Concentrations", "setting": "Staphylococcus aureus; [16]", "result": 3.7, "unit": "µg/mL"},
      {"measurement": "Minimum Inhibitory Concentrations", "setting": "[11]; [16]", "result": "> 0.03", "unit": "µg/mL"},
      {"measurement": "Minimum Inhibitory Concentrations", "setting": "[11]; synergist (clavulanic acid sodium salt) added at 1 μg/ml. instead of 5 μg/ml., compared with the value at 5 μg/ml", "result": "Same value"}
    ]},
    {"smiles": "CC1(C)S[C@@H]2[C@H](NC(=O)Cc3ccccc3)C(=O)N2[C@H]1C(=O)O", "note": "[Benzylpenicillin, benzylpenicillin, reference compound]", "values": [
      {"measurement": "concentration by which growth is inhibited", "setting": "[12]; when 5 μg/ml. of clavulanic acid is also present", "result": "less than 12.5 μg/ml"}
    ]},
    {"smiles": "O=C(O)[C@H]1/C(=C/CO)O[C@@H]2CC(=O)N21", "note": "[clavulanic acid, Z-(2R,5R)-3-(β-hydroxyethylidene)-7-oxo-4-oxa-1-azabicyclo[3,2,0]heptane-2-carboxylic acid]", "values": [
      {"measurement": "MIC", "setting": "[12]; Klebsiella aerogenes, compound alone, read-out: concentration by which growth is not inhibited", "result": "> 10", "unit": "µg/mL"},
      {"measurement": "synergism of the antibacterial effect of cephaloridine", "setting": "[13]", "result": "able to synergyze the antibacterial effect of cephaloridine"},
      {"measurement": "synergism of the antibacterial effect of ampicillin", "setting": "[14]", "result": "able to synergyze the antibacterial effect of ampicillin"},
      {"measurement": "inhibition of growth", "setting": "[15]", "result": "able to inhibit the growth"}
    ]},
    {"smiles": "COC(=O)[C@H]1/C(=C/CO)O[C@@H]2CC(=O)N21", "note": "[clavulanic acid methyl ester]", "values": [
      {"measurement": "antibacterial activity in broth", "setting": "bacteria", "result": "broad spectrum activity but of a lower order than shown by clavulanic acid"}
    ]},
    {"smiles": "CC1(C)S[C@@H]2[C@H](NC(=O)[C@H](N)c3ccccc3)C(=O)N2[C@H]1C(=O)O", "note": "[Ampicillin, ampicillin, reference compound]", "values": [
      {"measurement": "Minimum Inhibitory Concentrations", "setting": "Escherichia coli B 11", "result": "> 500", "unit": "µg/mL"},
      {"measurement": "Minimum Inhibitory Concentrations", "setting": "Enterobacter cloacae [2]", "result": 250, "unit": "µg/mL"}
    ]}
  ]
}
